Like-named read-outs stand apart in the source and are kept apart here. One block for each compound: values may come before it.
What was measured:
IRK1 channel = target: T1, IRK1 channel (Mus musculus, UniProt P35561); assay: whole-cell patch clamp, HEK293T cells transfected with IRK1; assay type: cell-based; settings: 1 mM Ba++
T1 construct: expressed in transfected cells; host or cells: HEK293T
T1 sequence (P35561 1-428): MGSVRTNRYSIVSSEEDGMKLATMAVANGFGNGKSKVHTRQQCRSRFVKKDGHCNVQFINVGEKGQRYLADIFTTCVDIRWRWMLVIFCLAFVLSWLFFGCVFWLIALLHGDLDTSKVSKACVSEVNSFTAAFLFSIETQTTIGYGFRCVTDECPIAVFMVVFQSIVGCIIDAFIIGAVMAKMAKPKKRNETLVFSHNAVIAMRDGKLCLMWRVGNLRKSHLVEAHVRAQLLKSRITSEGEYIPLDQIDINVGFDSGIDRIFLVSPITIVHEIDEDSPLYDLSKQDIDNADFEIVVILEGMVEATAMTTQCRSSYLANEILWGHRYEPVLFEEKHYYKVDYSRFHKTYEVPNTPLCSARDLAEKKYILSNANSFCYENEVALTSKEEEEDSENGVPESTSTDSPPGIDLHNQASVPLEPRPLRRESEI
Experimental: Using whole-cell patch clamp, technique in HEK293T cells transfected with IRK1 or GIRK2 channels, it was determined that MPD does in fact modulate these channels. Addition of 100 mM MPD inhibits the inward currents of the IRK1 channel, without changing the reversal potential or altering inward rectification (FIG. 1e).
(§1) GIRK2c, GIRK4, IRK1, M2R and m-Phosducin were subcloned into PCDNA3.1 vector (Invitrogen). Point mutations were introduced by Quickchange site directed mutagenesis kit (Stratagene). The GIRK2 PIP mutant was generated by overlap-PCR method. Briefly, amino acid 216-NLRKSHL-222 (SEQ ID NO: 25) of IRK1 was swapped into 228-DLRNSHL-234 (SEQ ID NO: 26) of GIRK2, in the region designated βC-βD loop in the crystal structure. Mutations were confirmed by automated DNA sequencing methods.
(§2) HEK 293T cells were cultured in DMEM supplemented with 10% FBS, and 1× Glutamax (Invitrogen) in a humidified 37° incubator with 5% CO2. Cells were plated in a 12 well dish, and were transiently transfected using Lipofectamine 2000 (Invitrogen). After 12-24 hrs, cells were re-plated to 12-mm glass coverslips coated with poly-D-Lysine (20 microgram/ml).
(§3) HEK293 cells were transfected with 0.2 micrograms of channel cDNA. The cells were co-transfected with 0.04 micrograms of eYFP cDNA to identify transfected cells. 0.8 micrograms of Muscarinic Receptor 2 (M2R) was also co-transfected for experiments with Carbachol. For experiments with and without m-phosducin, 0.8 ug of m-phosducin cDNA was used versus a PCDNA3.1 vector control.
(§4) Whole-cell patch clamp recordings were performed 24-72 hrs after transfection. Borosilicate glass electrodes (Warner Instruments) of […] filled with intracellular solution (130 mM KCl, 20 mM NaCl, 5 mM EGTA, 2.56 mM K2ATP, 5.46 mM MgCl2, 0.30 mM Li2GTP, and 10 mM HEPES (pH 7.4)) was used. Membrane currents were recorded using Axopatch 200B (Axon Instruments) amplifier, adjusted electronically for cell capacitance and series resistance (80-100%), filtered at 1 kHz with an 8-pole Bessel filter and digitized at 5 kHz with a Digidata 1200 interface (Axon Instruments). The cells rapidly perfused with a 20 mM K^+ (20K) solution (20 mM KCl, 140 mM NaCl, 0.5 mM CaCl2, 2 mM MgCl2 and 10 mM HEPES (pH7.4)). Alcohols, 5 μM Carbachol, and 1 mM BaCl2 (diluted in 20K solution) were applied from outside the cell with the rapid perfusion system (Warner Instruments). Whole-cell currents were measured using a ramp protocol that holds at −40 mV, steps to −100 mV then ramps to +50 mV and repeats every 2 seconds. Current-voltage relationships also were obtained from the ramp protocol. This protocol was used to measure the inwardly rectifying currents at −100 mV and to ensure stability of recording by monitoring a reversal potential and inward rectification. Current density was measured by dividing inward current at −100 mV by membrane capacitance that was compensated during the recording. Basal currents were measured as the Ba^++ blocked inward currents at −100 mV. Alcohol and Carbachol modulated currents were measured by averaging two consecutive current readings upon reaching steady state, and subtracting the averaged basal current before and after the application of modulator. Pooled data are presented as Mean±SEM and evaluated for statistical significance by a 1-way ANOVA, followed by Bonferroni's multiple comparison post-hoc test.

[1] = target: T2, GIRK2 channel (wild type) (Mus musculus, UniProt P48542); assay: whole-cell patch clamp, HEK293T cells transfected with GIRK2; assay type: cell-based; settings: 1 mM Ba++, MPD doses up to 300 mM
T2 construct: expressed in transfected cells; host or cells: HEK293T
T2 sequence (P48542 1-425): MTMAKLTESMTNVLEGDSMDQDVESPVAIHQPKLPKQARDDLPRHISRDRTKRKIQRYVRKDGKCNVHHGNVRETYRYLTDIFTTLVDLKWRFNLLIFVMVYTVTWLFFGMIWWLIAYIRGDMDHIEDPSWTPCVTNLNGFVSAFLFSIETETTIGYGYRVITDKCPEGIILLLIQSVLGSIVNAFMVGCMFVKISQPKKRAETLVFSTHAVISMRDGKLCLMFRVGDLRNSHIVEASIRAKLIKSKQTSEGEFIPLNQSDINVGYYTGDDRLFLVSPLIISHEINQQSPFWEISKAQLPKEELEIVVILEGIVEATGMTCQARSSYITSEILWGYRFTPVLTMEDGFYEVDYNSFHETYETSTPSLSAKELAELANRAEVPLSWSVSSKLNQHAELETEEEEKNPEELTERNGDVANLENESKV
Description: as §1, §2, §3, §4

Kir3 channels = target: T3, Kir3 channels (Mus musculus, UniProt P48542); assay: patch-clamp determination of ion transport activity: activation of Kir3 channels; assay type: cell-based; settings: for Emax at 100000 µM: read-out: Maximal activation of Kir3 channels relative to that of 100 mM (±)MPD
T3 construct: other: patch-clamp; other: 100 mM
T3 sequence (P48542 1-425): T2 sequence (P48542 1-425)
Description: It has been determined that inwardly rectifying potassium (Kir) channels are regulated directly by small molecule alcohol compounds. Three-dimensional crystallographic analysis of Kir channels has elucidated atomic details of binding pocket interactions with 2-methyl-2,4-pentanediol (MPD). MPD inhibits Kir2 channel activity and activates Kir3 channel activity. Amino acid substitutions in this hydrophobic pocket of the channel protein may alter the response to MPD. As determined by patch-clamp determinations of ion transport activity, a racemic mixture of 2-methyl-2,4-pentanediol, (±)MPD, activates Kir3 channels with an EC50 of >200 mM and inhibits Kir2 homotetramer channels with an IC50 of ˜200 mM. […] Bupivacaine inhibits Kir3.1/3.4 and Kir3.1/3.2 channels with an IC50 of ˜20-40 micromolar.
The following also were observed. Maximal activation of Kir3 channels by 100 mM (±)MPD is 280% that of 100 mM EtOH. Maximal activation of Kir3 channels by 100 mM R(−)2 methyl-2,4-pentanediol is 60% that of 100 mM (±)MPD. Maximal activation of Kir3 channels by 100 mM 3-methyl-1,3,5-pentanetriol is 70% that of 100 mM (±)MPD. Maximal activation of Kir3 channels by 100 mM 2,5-dimethyl-1,2,6-hexanetriol is 70% that of 100 mM (±)MPD. Maximal activation of Kir3 channels by 100 mM (±) 2,4-pentanediol is 50% that of 100 mM (±)MPD.

[2] = tested on: Kir3.1/3.4 and Kir3.1/3.2 channels; settings: cited from earlier work
Kir1 and Kir2 channels = settings: cited from earlier work

SMILES: [Ba+2].[Cl-].[Cl-] [Ba^++, BaCl2]
block of IRK1 inwardly rectifying current (IRK1 channel): blocked completely
block of MPD-induced GIRK2 currents [1]: completely blocked

SMILES: CC(CO)CCC(C)(O)CO (stereo not drawn) [2,5-dimethyl-1,2,6-hexanetriol]
Emax at 100000 µM (Kir3 channels): 70%

SMILES: CC(O)(CCO)CCO [3-methyl-1,3,5-pentanetriol]
Emax at 100000 µM (Kir3 channels): 70%

SMILES: CCCCN1CCCCC1C(=O)Nc1c(C)cccc1C (stereo not drawn) [Bupivacaine]
IC50 ([2]; certain Kir3 channels, read-out: IC50 for inhibition of certain Kir3 channels): ~20 µM
IC50 ([2]; reference [31], read-out: IC50 for inhibition of Kir3.1/3.4 and Kir3.1/3.2 channels): 20 to 40 µM
sensitivity of Kir1 and Kir2 channels to bupivacaine (Kir1 and Kir2 channels): insensitive

Next, values leading:

Emax at 100000 µM (Kir3 channels): 50%
SMILES: CC(O)CC(C)O (racemic) [(±) 2,4-pentanediol, 2,4-pentanediol]

Maximal activation of Kir3 channels relative to that of 100 mM (±)MPD (Kir3 channels; 100 mM): 60%
SMILES: C[C@@H](O)CC(C)(C)O [R(−)2 methyl-2,4-pentanediol]

Reference: US8097422B2, “Kir channel modulators” (Salk Institute for Biological Studies, priority 2007, dated 2012)
